Data from US4550107A, “Condensed diazepinones, their compositions and methods of use as pharmaceuticals” (Dr. Karl Thomae GmbH, priority 1984, dated 1985).
Several values for one entry are separate records, joined by “and”; a condition that tells them apart may be missing. Equal values may be shown once.

What was measured:
[1] = biological target: T1, muscarinic receptors (heart) (Rattus norvegicus, UniProt P10980); experiment: Receptor binding tests: inhibition of specific 3H-N-methylscopolamine binding, whole heart; design: species or system Sprague-Dawley rats; conditions: whole heart homogenate 1:250; 0.3 nM 3H-NMS; 30° C., 45 min, pH 7.4
T1 construct: The whole heart is cut up with scissors; All the organs are then homogenised in a Potter apparatus; from tissue; host or cells: rat whole heart, homogenised (1:250)
T1 sequence (P10980 1-466): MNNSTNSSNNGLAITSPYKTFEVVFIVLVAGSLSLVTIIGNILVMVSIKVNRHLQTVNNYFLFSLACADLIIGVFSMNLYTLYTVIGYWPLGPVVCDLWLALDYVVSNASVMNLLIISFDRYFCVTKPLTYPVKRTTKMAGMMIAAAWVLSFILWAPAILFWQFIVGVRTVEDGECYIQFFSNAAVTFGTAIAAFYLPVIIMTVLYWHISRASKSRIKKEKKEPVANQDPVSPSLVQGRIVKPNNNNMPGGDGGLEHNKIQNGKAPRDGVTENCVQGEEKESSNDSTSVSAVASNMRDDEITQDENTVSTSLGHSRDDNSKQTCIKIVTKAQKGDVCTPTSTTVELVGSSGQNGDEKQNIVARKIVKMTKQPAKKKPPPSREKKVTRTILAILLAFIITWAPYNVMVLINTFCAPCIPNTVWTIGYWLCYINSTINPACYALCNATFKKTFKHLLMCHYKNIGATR
Protocol: (§1) B. Studies of binding to muscarinic receptors: determining the IC50 value
(§2) The organ donors are Sprague-Dawley rats weighing from 180-220 g. After the removal of the heart, stomach and cerebral cortex, all the other steps are carried out in ice-cold Hepes-HCl buffer (pH 7.4; 100 m molar NaCl, 10 m molar MgCl2). The whole heart is cut up with scissors. All the organs are then homogenised in a Potter apparatus. For the bonding test, the homogenised organs are diluted as follows:
(§3) The homogenised organs are incubated at a specific concentration of the radioligand and with a series of concentrations of the non-radioactive test substances in an Eppendorf centrifugal test tube at 30° C. Incubation lasts 45 minutes. The radioligand is 0.3 n molar ^3 H-N-methylscopolamine (^3 H-NMS). After incubation has been ended by centrifuging at 14,000 g, the radioactivity in the pellet is determined. It represents the sum of specific and non-specific binding of ^3 H-NMS. The proportion of non-specific binding is defined as the radioactivity which binds in the presence of 1 μmolar quinuclidinyl benzylate. Four measurements are made in each case. The IC50 values of the non-labeled test substances are determined graphically. They represent the concentration of test substance at which the specific binding of ^3 H-NMS to the muscarinic receptors in the various organs is inhibited by 50%.

[2] = system: gastric acid secretion; experiment: Inhibition of gastric acid secretion in pylorus-ligated rats (Shay rat); type: in vivo, male Wistar rats; conditions: iv, 2 h, i.v., 5 min before pylorus ligature, volume or acid output reduced by 50%
Protocol: (§4) The methods used have the objective of confirming the selectivity of the antimuscarinic acitivity. Those substances which are selected on the basis of "in vitro" investigations are tested for:
2. inhibitory effect on gastric acid secretion in pylorous-ligated rats; and
2. Inhibition of secretion in rats
Increasing doses of the substance are injected intravenously into male Wistar rats (10 rats per group) 5 minutes before the ligature of the pylorus. The rats are killed 2 hours later and both the volume of gastric acid and also the "acid output" are determined by titration. The dosage of substance which reduces either the volume or the acid output by 50% is determined.

[3] = system: heart rate; experiment: Heart rate increasing activity (tachycardia) in the conscious dog; type: in vivo; conditions: Canis lupus familiaris, iv; dose increasing heart rate by 50 beats per minute; conscious dogs; read-out: Tachycardia (dog) ED50
Protocol: as §4
1. tachycardiac effect in conscious dogs;
1. Heart rate increasing activity in the conscious dogs
The substances are injected intravenously and the heart rate is measured with the aid of a tachygraph. After a control period, increasing doses of the compound are administered in order to increase the heart rate. The next dose is injected when the effect of the preceding dose is no longer visible. […] Each substance is tested on 3 to 5 dogs.

[4] = biological target: muscarinic receptors (cerebral cortex); experiment: Receptor binding tests: inhibition of specific 3H-N-methylscopolamine binding, cerebral cortex; design: species or system Sprague-Dawley rats; conditions: cerebral cortex homogenate 1:3000; 0.3 nM 3H-NMS; 30° C., 45 min, pH 7.4
Protocol: as §1, §2, §3

[5] = Stability of separated diastereoisomers (reversion into the original mixture); type: physicochemical; conditions: for stability in crystalline form: temperature below the melting point
From the text: The base-substituted condensed diazepinones of formula I according to the invention contain up to two independent chiral elements, including an asymmetric carbon atom in the side chain. The second chiral element is the acylated tricyclic moiety itself, which can occur in two mirror-image forms. The nature of the tricyclic compound determines whether the energy barrier for inversion at this center is so high that the individual isomers are stable at ambient temperature and capable of being isolated.
The title compound is prepared analogously to Example 2 from 5-(chloroacetyl)-5,10-dihydro-11H-dibenzo[b,e][1,4]diazepin-11-one and D,L-2-[(4-methyl-1-piperazinyl)methyl]-piperidine to give colorless crystals, mp. 200°-202° C. (acetonitrile/activated charcoal). According to thin layer chromatography (Polygram® SIL G/UV254; eluant: dichloromethane/ethyl acetate/cyclohexane/methanol/conc. ammonia 3.5:1.5:0.46: 0.46:0.06; RF approx. 0.25) it is a mixture of isomers in a quantity ratio of approximately 1:1. Preparative separation is carried out by the following method:
(a) By liquid chromatography (HPLC):
Mobile Phase: Methylene chloride/cyclohexane/methanol/conc. ammonia (200:210:40:0.5 v/v);
In each case, a solution (100 μl) of the diastereoisomer mixture (15.2 mg) is injected into the mobile phase (1 ml) and thus placing the substance (1.5 mg) on the column.
(b) By liquid chromatography on a Jobin-Yvon chromatospac Prep using Li Chroprep Si 60, 25-40 μm (Merck-Darmstadt, Art. 9390) under a pressure of 10 bar.

Row | IC50 [1] | IC50 [4] | SMILES | also measured
1 | 70 nM | 1100 nM | CN(CC1CCCCN1CC(=O)N1c2ccccc2C(=O)Nc2cccnc21)[C@H]1CC[C@H](O)CC1 (relative stereo) [K] | 
2 | 150 nM and 130 nM | 1500 nM | CN(C)CC1CCCCN1CC(=O)N1c2ccccc2C(=O)Nc2cccnc21 (centres unmarked) [D] | 
3 | 170 nM | 1300 nM | CN(C)CCC1CCCCN1CC(=O)N1c2ccccc2C(=O)Nc2cccnc21 (centres unmarked) [E] | 
4 | 150 nM and 100 nM | 750 nM and 1000 nM | CCN(CC)CC1CCCCN1CC(=O)N1c2ccccc2NC(=O)c2ccccc21 (centres unmarked) [F] | 
5 | 400 nM | 4500 nM | CCN(CC)C[C@@H]1CCCN1CC(=O)N1c2ccccc2C(=O)Nc2cccnc21 [H] | 
6 | 19 nM | 85 nM | CN(CC1CCCN(CC(=O)N2c3ccccc3C(=O)Nc3cccnc32)C1)C1CCCCC1 (centres unmarked) [L] | 
7 | 13 nM | 50 nM | CN(CC1CCCCN1CC(=O)N1c2ccccc2NC(=O)c2ccccc21)C1CCCCC1 (centres unmarked) [N] | 
8 | 2.8 nM | 20 nM | CN(CC1CCCN(CC(=O)N2c3ccccc3NC(=O)c3ccccc32)C1)C1CCCCC1 (centres unmarked) [O] | 
9 | 18 nM | 100 nM | CCCCN(C)CC1CCCCN1CC(=O)N1c2ccccc2NC(=O)c2ccccc21 (centres unmarked) [Q] | 

Continued, molecule first:

Row | SMILES | IC50 [1] | IC50 [4] | also measured
10 | CCN(CC)CC1CCCCN1CC(=O)N1c2ccccc2C(=O)Nc2cccnc21 (racemic) [A] | 140 nM and 150 nM |  | ED50 [2]: > 10 mg/kg; ED (increase of 50 beats per minute) [3]: 0.103 mg/kg
11 | CN1CCN(CC2CCCCN2CC(=O)N2c3ccccc3NC(=O)c3ccccc32)CC1 (single isomer, unassigned) [Isomer I, 5,10-Dihydro-5-[[2-[(4-methyl-1-piperazinyl)methyl]-1-piperidinyl]-acetyl]-11H-dibenzo[b,e][1,4]diazepin-11-one] |  |  | stability in crystalline form [5]: completely stable; half-life ([5]; hplc mobile phase solution, ambient temperature, mobile phase methylene chloride/cyclohexane/methanol/conc. ammonia, read-out: reverts into the original mixture, t1/2): < 216 h
12 | CN1CCN(CC2CCCCN2CC(=O)N2c3ccccc3NC(=O)c3ccccc32)CC1 (single isomer, unassigned) [Isomer II, 5,10-Dihydro-5-[[2-[(4-methyl-1-piperazinyl)methyl]-1-piperidinyl]-acetyl]-11H-dibenzo[b,e][1,4]diazepin-11-one] |  |  | stability in crystalline form [5]: completely stable
13 | CN1CCN(CC(=O)N2c3ccccc3C(=O)Nc3cccnc32)CC1 [B] |  |  | ED50 [2]: 0.4 mg/kg; ED (increase of 50 beats per minute) [3]: 0.468 mg/kg
14 | CN1C2CCC1CC(OC(=O)C(CO)c1ccccc1)C2 (centres unmarked) [C] |  |  | ED (increase of 50 beats per minute) [3]: 0.0077 mg/kg
15 | CCN(CC)CC1CCCCN1CC(=O)N1c2ccccc2NC(=O)c2cscc21 (centres unmarked) [G] | 220 nM | 2200 nM | 
16 | CCN(CC)C[C@@H]1CCCN1CC(=O)N1c2ccccc2NC(=O)c2ccccc21 [I] | 90 nM | 800 nM | 
17 | CCN(CC)CC1CCCN(CC(=O)N2c3ccccc3NC(=O)c3ccccc32)C1 (centres unmarked) [M] | 35 nM | 100 nM | 
18 | CN1CCCC1C1CCCN(CC(=O)N2c3ccccc3NC(=O)c3ccccc32)C1 (centres unmarked) [P] | 17 nM | 120 nM | 
